We go through 15 compounds from patent publication US9695180B2 (Incyte Corporation, priority 2014, dated 2017).

Each structure is given as a SMILES string. pIC50: −log10 of the molar value. Read-outs that look alike come from different tables or passages of the source.

The assay deals with LSD-1 enzyme (Homo sapiens (Human), UniProt O60341). The assay can be described thus: LANCE LSD1/KDM1A demethylase assay (LSD1 histone demethylase biochemical assay). How it is done: Example A: LSD1 Histone Demethylase Biochemical Assay
LANCE LSD1/KDM1A demethylase assay—10 μL of 1 nM LSD-1 enzyme (ENZO BML-SE544-0050) in the assay buffer (50 mM Tris, pH 7.5, 0.01% Tween-20, 25 mM NaCl, 5 mM DTT) were preincubated for 1 hour at 25° C. with 0.8 μL compound/DMSO dotted in black 384 well polystyrene plates. […] Reactions were stopped by addition of 10 μL 1× LANCE Detection Buffer (PerkinElmer CR97-100) supplemented with 1.5 nM Eu-anti-unmodified H3K4 Antibody (PerkinElmer TRF0404), and 225 nM LANCE Ultra Streptavidin (PerkinElmer TRF102) along with 0.9 mM Tranylcypromine-HCl (Millipore 616431). After stopping the reactions plates were incubated for 30 minutes and read on a PHERAstar FS plate reader (BMG Labtech).
Background: TR-FRET usually uses a lanthanide donor and a delayed reading to cut background.

Setting [1] is: 1 nM LSD-1 enzyme, 1 hour preincubation at 25° C., Biotin-labeled Histone H3 peptide substrate, read-out: IC50.

On to `CN1CCC[C@@H](COc2nc(-c3ccc(C#N)cc3)c(-c3ccc4c(c3)CC(O)C4)n3ccnc23)C1` (single isomer, unassigned) [78 (peak 1)], for which, under setting [1], the pIC50 was over 7.30.

Take `C[C@H](O)c1nc2cc(-c3c(-c4ccc(C#N)cc4)nc(N4CCC(N(C)C)CC4)c4nccn34)ccc2n1C` [Example 114, 4-(8-[4-(dimethylamino)piperidin-1-yl]-5-{2-[(1S)-1-hydroxyethyl]-1-methyl-1H-benzimidazol-5-yl}imidazo[1,2-a]pyrazin-6-yl)benzonitrile]: the pIC50 was 6.30 to 7.30.

The compound `Cn1c(=O)oc2cc(-c3c(-c4ccc(C#N)cc4)nc(OC[C@@H]4CCCN(CCC#N)C4)c4nccn34)ccc21` [Example 64, 4-[8-{[(3R)-1-(2-cyanoethyl)piperidin-3-yl]methoxy}-5-(3-methyl-2-oxo-2,3-dihydro-1,3-benzoxazol-6-yl)imidazo[1,2-a]pyrazin-6-yl]benzonitrile] showed a negative-log IC50 (pIC50) of 6.30 to 7.30.

Compound `N#Cc1ccc(-c2nc(OC[C@@H]3CCNC3)c3nccn3c2-c2ccc(C(F)(F)F)cc2)cc1` [Example 28, 4-{8-[(3R)-pyrrolidin-3-ylmethoxy]-5-[4-(trifluoromethyl)phenyl]imidazo[1,2-a]pyrazin-6-yl}benzonitrile] gave a pIC50 of 6.30 to 7.30.

`CN1CCC[C@@H](COc2nc(-c3ccc(C#N)cc3)c(-c3ccc(CN4CCOCC4)cc3F)n3ccnc23)C1` [Example 89, 4-(5-[2-fluoro-4-(morpholin-4-ylmethyl)phenyl]-8-{[(3R)-1-methylpiperidin-3-yl]methoxy}imidazo[1,2-a]pyrazin-6-yl)benzonitrile] gave a pIC50 of 6.30 to 7.30.

In the case of `CN1CCC[C@@H](COc2nc(-c3ccc(C#N)cc3)c(-c3ccc4scnc4c3)n3ccnc23)C1` [Example 55, 4-(5-(1,3-benzothiazol-5-yl)-8-{[(3R)-1-methylpiperidin-3-yl]methoxy}imidazo[1,2-a]pyrazin-6-yl)benzonitrile], the pIC50 is 6.30 to 7.30.

Take `Cc1ccc(-c2c(-c3ccc(C#N)cc3)nc(CO[C@@H]3CCNC3)c3nccn23)cc1` [Example 3, 4-(5-(4-methylphenyl)-8-{[(3R)-pyrrolidin-3-yloxy]methyl}imidazo[1,2-a]pyrazin-6-yl)benzonitrile]: the pIC50 is 6.30 to 7.30.

Compound `Cc1ccc(-c2c(-c3ccc(C#N)cc3)nc(N(C)CCCN(C)C)c3nccn23)cc1` [Example 15, 4-[8-[[3-(dimethylamino)propyl](methyl)amino]-5-(4-methylphenyl)imidazo[1,2-a]pyrazin-6-yl]benzonitrile] had a negative logarithm of the IC50 (pIC50) of 6.30 to 7.30.

Turning to `Cc1ccc(-c2c(-c3ccc(C#N)cc3)nc(CCN3CC[C@@H](N(C)C)C3)c3nccn23)cc1` [Example 6, 4-[8-{2-[(3R)-3-(dimethylamino)pyrrolidin-1-yl]ethyl}-5-(4-methylphenyl)imidazo[1,2-a]pyrazin-6-yl]benzonitrile], the pIC50 was 6.00 to 6.30.

For the compound `CN1CCC[C@@H](COc2nc(-c3ccc(C#N)cc3)c(-c3ccc4c(c3)CC(O)C4)n3ccnc23)C1` (single isomer, unassigned) [78 (peak 2)], the pIC50 under setting [1] is over 7.30.

For the compound `CN1CCC[C@@H](COc2nc(-c3ccc(C#N)cc3)c(-c3ccc4c(c3)OCCO4)n3ccnc23)C1` [Example 50, 4-(5-(2,3-dihydro-1,4-benzodioxin-6-yl)-8-{[(3R)-1-methylpiperidin-3-yl]methoxy}imidazo[1,2-a]pyrazin-6-yl)benzonitrile], the pIC50 is 6.30 to 7.30.

For `CN1CCC[C@@H](COc2nc(-c3ccc(C#N)cc3)c(-c3ccc(N(C)C)nc3)n3ccnc23)C1` [Example 51, 4-(5-[6-(dimethylamino)pyridin-3-yl]-8-{[(3R)-1-methylpiperidin-3-yl]methoxy}imidazo[1,2-a]pyrazin-6-yl)benzonitrile], the negative-log IC50 (pIC50) is 6.30 to 7.30.

With `Cc1ccc(-c2c(-c3ccc(C#N)cc3)nc(C(=O)NCC3CNC3)c3nccn23)cc1` [Example 24, N-(azetidin-3-ylmethyl)-6-(4-cyanophenyl)-5-(4-methylphenyl)imidazo[1,2-a]pyrazine-8-carboxamide], the pIC50 was 6.30 to 7.30.

Turning to `Cc1ccc(-c2c(-c3ccc(C#N)cc3)nc(OC[C@@H]3CCCN(C)C3)c3nccn23)cc1CN1CCN(S(C)(=O)=O)CC1` [Example 71, 4-(5-(4-methyl-3-{[4-(methylsulfonyl)piperazin-1-yl]methyl}phenyl)-8-{[(3R)-1-methylpiperidin-3-yl]methoxy}imidazo[1,2-a]pyrazin-6-yl)benzonitrile], the pIC50 is 6.30 to 7.30.

Consider `N#Cc1ccc(-c2nc(OC[C@@H]3CCNC3)c3nccn3c2-c2ccccc2)cc1` [Example 26, 4-{(5-phenyl)-8-[(3R)-pyrrolidin-3-ylmethoxy]imidazo[1,2-a]pyrazin-6-yl}benzonitrile], for which the pIC50 is 6.30 to 7.30.

As usually defined, the pIC50 is the IC50 on a negative log10 scale, so that one unit is a factor of ten.
